Reference: US20240208937A1, “Compounds and Their Use for Treatment of Hemoglobinopathies” (Bristol-Myers Squibb Company, priority 2022, published 2024)

What was measured:
Format in all cases: cell-based
[1] = target: WIZ (Widely interspaced zinc finger) (Homo sapiens (Human), UniProt O95785+Q96SW2); experiment: HUDEP-2 WIZ HiBiT degradation assay; details: HUDEP-2 WIZ HiBiT cells, 24 hours treatment, luminescence; for DC50: read-out: WIZ EC50
Method: (§1) The HiBiT degradation assay for WIZ and ZBTB7A in HUDEP-2 cells was performed as described below. HUDEP-2 cells engineered to express a HiBiT tag in either the WIZ (Widely interspaced zinc finger) or ZBTB7A (Zinc Finger And BTB Domain Containing 7A) proteins were maintained in low attachment flasks in StemSpan SFEM II media supplemented with Penicillin-Streptomycin (50 U/mL), rhSCF (50 ng/mL), rhEPO (3 IU/mL), dexamethasone (0.4 μg/mL) and doxycycline (1 μg/mL). Prior to start of the assay, cell count and viability were measured by trypan blue exclusion using the Vi-cell XR cell viability analyzer. For the HUDEP-2 WIZ HiBiT assay, cells were transferred to a 50 mL conical and centrifuged at 500 g for five minutes. Cells were resuspended in fresh StemSpan SFEM II media supplemented with Penicillin-Streptomycin (50 U/mL), rhSCF (50 ng/mL), rhEPO (3 IU/mL), dexamethasone (0.4 μg/mL) and doxycycline (1 μg/mL) at a density of 1.0×10^6 cells/ml. Forty microliters of cell suspension was dispensed into 384-well Low Flange White Flat Bottom Polystyrene TC-treated Microplates containing pre-dispensed compounds, using a VIAFLO 384 liquid hander, and placed in a 37° C. incubator with 5% CO2. […] After 24 hours of treatment, 40 μL Nano-Glo HiBiT Lytic Detection System reagent was dispensed into each well using a VIAFLO 384 liquid hander. Plates were incubated for 25 minutes at room temperature and the luminescence was read as relative luminescent units using the EnVision plate reader. EC50 and Y-min values were calculated using curves calculated from dotmatics software after the normalization to the DMSO control of 10 different concentrations: 10, 3.33, 1.11, 0.37, 0.12, 0.04 0.0137, 0.0046, 0.0015 and 0.0005 μM respectively.

[2] = target: ZBTB7A (Zinc Finger And BTB Domain Containing 7A) (Homo sapiens (Human), UniProt O95365+Q96SW2); experiment: HUDEP-2 ZBTB7A HiBiT degradation assay; details: HUDEP-2 ZBTB7A HiBiT cells, 24 hours treatment, luminescence; for DC50: read-out: ZBTB7A EC50
Chain of ZBTB7A (Zinc Finger And BTB Domain Containing 7A) (O95365 whole entry, the tested form may be a part): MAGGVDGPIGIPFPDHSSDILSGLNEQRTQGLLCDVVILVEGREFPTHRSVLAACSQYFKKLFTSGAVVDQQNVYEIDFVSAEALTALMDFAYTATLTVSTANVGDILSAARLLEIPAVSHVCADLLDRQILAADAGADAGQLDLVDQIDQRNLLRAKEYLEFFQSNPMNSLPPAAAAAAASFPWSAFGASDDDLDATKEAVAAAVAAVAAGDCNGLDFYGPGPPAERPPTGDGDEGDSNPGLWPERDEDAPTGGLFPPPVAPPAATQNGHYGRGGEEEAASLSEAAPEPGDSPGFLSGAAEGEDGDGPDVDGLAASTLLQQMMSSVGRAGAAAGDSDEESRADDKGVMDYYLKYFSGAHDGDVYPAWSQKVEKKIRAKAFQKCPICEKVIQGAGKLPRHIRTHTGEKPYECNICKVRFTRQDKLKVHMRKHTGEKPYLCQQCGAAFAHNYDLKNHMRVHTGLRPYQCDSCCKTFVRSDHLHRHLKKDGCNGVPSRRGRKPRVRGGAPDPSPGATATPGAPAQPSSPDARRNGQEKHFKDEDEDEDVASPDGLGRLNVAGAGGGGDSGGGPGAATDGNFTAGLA
Chain of ZBTB7A (Zinc Finger And BTB Domain Containing 7A) (Q96SW2 whole entry, the tested form may be a part): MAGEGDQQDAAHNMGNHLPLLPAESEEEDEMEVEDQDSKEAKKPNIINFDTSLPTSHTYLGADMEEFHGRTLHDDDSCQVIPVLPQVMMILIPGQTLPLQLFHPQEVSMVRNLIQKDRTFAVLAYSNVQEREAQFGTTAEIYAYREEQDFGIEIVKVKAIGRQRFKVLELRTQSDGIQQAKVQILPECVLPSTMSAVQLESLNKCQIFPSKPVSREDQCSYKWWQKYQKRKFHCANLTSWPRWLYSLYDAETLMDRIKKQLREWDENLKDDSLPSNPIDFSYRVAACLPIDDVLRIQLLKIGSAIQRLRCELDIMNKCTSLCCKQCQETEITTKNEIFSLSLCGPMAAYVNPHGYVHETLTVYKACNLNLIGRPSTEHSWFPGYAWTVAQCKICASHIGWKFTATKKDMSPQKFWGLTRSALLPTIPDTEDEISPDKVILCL
Chain of ZBTB7A (Zinc Finger And BTB Domain Containing 7A) (Q16531 whole entry partner, the tested form may be a part): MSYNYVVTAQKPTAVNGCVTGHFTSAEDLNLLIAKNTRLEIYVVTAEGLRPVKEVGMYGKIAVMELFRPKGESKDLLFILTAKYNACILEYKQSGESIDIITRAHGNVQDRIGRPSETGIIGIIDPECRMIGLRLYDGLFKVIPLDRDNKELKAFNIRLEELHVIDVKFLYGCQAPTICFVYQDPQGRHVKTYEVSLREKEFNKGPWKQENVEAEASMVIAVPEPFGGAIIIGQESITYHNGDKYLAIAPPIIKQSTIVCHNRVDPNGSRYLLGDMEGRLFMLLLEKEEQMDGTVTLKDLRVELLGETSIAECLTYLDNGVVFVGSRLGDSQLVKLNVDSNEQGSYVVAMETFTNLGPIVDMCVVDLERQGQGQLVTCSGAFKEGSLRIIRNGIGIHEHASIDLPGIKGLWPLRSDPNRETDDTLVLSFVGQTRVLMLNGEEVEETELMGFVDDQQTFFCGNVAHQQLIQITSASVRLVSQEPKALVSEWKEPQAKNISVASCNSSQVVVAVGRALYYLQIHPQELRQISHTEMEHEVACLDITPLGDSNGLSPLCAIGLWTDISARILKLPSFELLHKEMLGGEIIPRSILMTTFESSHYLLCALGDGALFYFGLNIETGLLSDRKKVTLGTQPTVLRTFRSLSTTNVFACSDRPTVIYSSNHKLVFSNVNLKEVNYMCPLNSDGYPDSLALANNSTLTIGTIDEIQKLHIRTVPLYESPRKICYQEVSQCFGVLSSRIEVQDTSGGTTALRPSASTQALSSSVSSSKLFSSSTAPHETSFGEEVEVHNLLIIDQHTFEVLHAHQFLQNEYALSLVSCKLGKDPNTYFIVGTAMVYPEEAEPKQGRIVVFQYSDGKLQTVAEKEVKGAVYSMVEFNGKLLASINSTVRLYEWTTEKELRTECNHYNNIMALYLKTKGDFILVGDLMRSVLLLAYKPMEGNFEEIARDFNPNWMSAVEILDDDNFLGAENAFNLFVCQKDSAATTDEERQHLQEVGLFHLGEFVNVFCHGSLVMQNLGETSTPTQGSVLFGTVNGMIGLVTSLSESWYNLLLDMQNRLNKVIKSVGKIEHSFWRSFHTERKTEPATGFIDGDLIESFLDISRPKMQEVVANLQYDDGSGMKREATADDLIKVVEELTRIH
Method: as §1
For the HUDEP-2 ZBTB7A HiBiT assay, cell count and viability were measured by trypan blue exclusion using the Vi-cell XR cell viability analyzer and the cells were transferred to a 50 mL conical and centrifuged at 500 g for five minutes. Cells were resuspended in fresh IMDM media supplemented with L-Glutamine (1×), Penicillin-Streptomycin (50 U/mL), holo-transferrin (330 μg/mL), heparin (2 IU/mL), r-human Insulin (10 μg/mL), rhEPO (3 IU/mL), rhSCF (100 ng/mL)+Dox (1 μg/mL) and 5% human plasma in low attachment flasks, which were placed in a 37° C. incubator with 5% CO2. After 48 hours, cell count and viability were measured by trypan blue exclusion using the Vi-cell XR cell viability analyzer. The HUDEP-2 ZBTB7A cells were transferred to a 50 mL conical, centrifuged at 500 g for five minutes and resuspended at a density of 1.0×10^6 cells/ml in IMDM media supplemented with L-Glutamine (1×), Penicillin-Streptomycin (50 U/mL), holo-transferrin (330 μg/mL), heparin (2 IU/mL), r-human Insulin (10 μg/mL), rhEPO (3 IU/mL), rhSCF (100 ng/mL)+Dox (1 μg/mL) and 5% human plasma. Forty microliters of cell suspension was dispensed into 384-well Low Flange White Flat Bottom Polystyrene TC-treated Microplates containing pre-dispensed compounds, using a VIAFLO 384 liquid hander, and placed in a 37° C. incubator with 5% CO2. […] After 24 hours of treatment, 40 μL Nano-Glo HiBiT Lytic Detection System reagent was dispensed into each well using a VIAFLO 384 liquid hander. Plates were incubated for 25 minutes at room temperature and the luminescence was read as relative luminescent units using the EnVision plate reader. EC50 and Y-min values were calculated using curves calculated from dotmatics software after the normalization to the DMSO control of 10 different concentrations: 10, 3.33, 1.11, 0.37, 0.12, 0.04 0.0137, 0.0046, 0.0015 and 0.0005 μM respectively.

[3] = system: fetal hemoglobin (HbF) in GCSF-mobilized human CD34+ cells; experiment: HbF Induction Assay; details: 168 h; compound 1 μM, 7 days, erythroid-differentiated human CD34+ cells, flow cytometry; DMSO baseline 15% HbF positive cells
Method: The expansion, differentiation, and maturation of GCSF-mobilized human CD34^+ (STEMCELL Technologies Inc.) cells towards erythroid lineage cells were performed using a two-phase liquid culture model (Moutouh-de Parseval L A, el al. Pomalidomide and lenalidomide regulate erythropoiesis and fetal hemoglobin production in human CD34+ cells. J Clin Invest. 2008 January; 118(1):248-58). In the first phase, GCSF-mobilized human CD34^+ cells were cultured using StemSpan™-XF (STEMCELL Technologies Inc.) media supplemented with 1×BIT 9500, Penicillin-Streptomycin (50 U/mL), 100 ng/mL recombinant human (rh) SCF, 100 ng/mL rh Flt3-L, 20 ng/mL rh IL-3 and 10 ng/mL rh EPO and the growth of cells maintained in exponential phase for 7 days at 37° C. with 5% CO2 to support expansion and progenitor differentiation prior the second phase and treatment with compounds. In the second phase, culture media was changed to StemSpan™-XF media supplemented with 1×BIT 9500, Penicillin-Streptomycin (50 U/mL), 50 ng/mL rh SCF and 40 ng/mL rh EPO to promote further differentiation and maturation of the erythrocytes and to initiate treatment with compounds. Compounds were dispensed in duplicate at a final concentration of 1 μM in a final DMSO amount of 0.1%. Fresh compound was reapplied, and cell density was kept constant every 2 days. After 7 days, the cells were assessed for viability and fetal hemoglobin expression using flow cytometry. For viability analysis, eBioscience™ Fixable Viability Dye eFluor™ 780 (1:1000, eBioscience; Cat #65-0865-14) was added to the cells and kept in the dark for 10 minutes. For analysis of fetal hemoglobin (HbF), cells were fixed and permeabilized using Fixation Buffer (BioLegend; Cat #420801 and Intracellular staining permeabilization buffer (BioLegend, Cat #420201) following manufacturer's instructions. During permeabilization step, cells were stained with PE-labelled Mouse Anti-Human Fetal Hemoglobin (1:10, clone 2D12; BD Biosciences, Cat #BDB560041) incubated at room temperature for 20 minutes and protected from light. PE-labelled Mouse anti-IgG k, (1:10 clone MOPC-21; BD Biosciences, Cat# BDB551436) was used as an isotype control.
Viability, cell count, and fetal hemoglobin (HbF) levels were measured using an Attune NXT flow cytometer (Thermofisher) and the data analyzed using the FCS express software (De Novo Software). In Table 1 below, the effects of compounds of formula (I), formula (I′), formula (II), formula (II′), and formula (III) on % viable cells, viable cell count, on the % HbF positive cells and the median fluorescent intensity (MFI) of the HbF positive cell population compared to the DMSO controls can be viewed. All gates were set using the isotype negative control. The baseline % HbF positive cells for DMSO-treated control cells was 15%. Compounds of formula (I), formula (I′), formula (II), formula (II′), and formula (III) having HbF induction between 66% and 100% are level A. Compounds of formula (I), formula (I′), formula (II), formula (II′), and formula (III) having HbF induction between 33% and 66% are level B. Compounds of formula (I), formula (I′), formula (II), formula (II′), and formula (III) having HbF induction % less than 33% are level C. For certain compounds of formula (I), formula (I′), formula (II), formula (II′), and formula (III) % HbF induction values 0-33% (activity level C), between 33% and 66% (activity level B), and between 67% and 100% (activity level A) are shown in Table 2 below.

Chain of WIZ (Widely interspaced zinc finger) (O95785 whole entry, the tested form may be a part): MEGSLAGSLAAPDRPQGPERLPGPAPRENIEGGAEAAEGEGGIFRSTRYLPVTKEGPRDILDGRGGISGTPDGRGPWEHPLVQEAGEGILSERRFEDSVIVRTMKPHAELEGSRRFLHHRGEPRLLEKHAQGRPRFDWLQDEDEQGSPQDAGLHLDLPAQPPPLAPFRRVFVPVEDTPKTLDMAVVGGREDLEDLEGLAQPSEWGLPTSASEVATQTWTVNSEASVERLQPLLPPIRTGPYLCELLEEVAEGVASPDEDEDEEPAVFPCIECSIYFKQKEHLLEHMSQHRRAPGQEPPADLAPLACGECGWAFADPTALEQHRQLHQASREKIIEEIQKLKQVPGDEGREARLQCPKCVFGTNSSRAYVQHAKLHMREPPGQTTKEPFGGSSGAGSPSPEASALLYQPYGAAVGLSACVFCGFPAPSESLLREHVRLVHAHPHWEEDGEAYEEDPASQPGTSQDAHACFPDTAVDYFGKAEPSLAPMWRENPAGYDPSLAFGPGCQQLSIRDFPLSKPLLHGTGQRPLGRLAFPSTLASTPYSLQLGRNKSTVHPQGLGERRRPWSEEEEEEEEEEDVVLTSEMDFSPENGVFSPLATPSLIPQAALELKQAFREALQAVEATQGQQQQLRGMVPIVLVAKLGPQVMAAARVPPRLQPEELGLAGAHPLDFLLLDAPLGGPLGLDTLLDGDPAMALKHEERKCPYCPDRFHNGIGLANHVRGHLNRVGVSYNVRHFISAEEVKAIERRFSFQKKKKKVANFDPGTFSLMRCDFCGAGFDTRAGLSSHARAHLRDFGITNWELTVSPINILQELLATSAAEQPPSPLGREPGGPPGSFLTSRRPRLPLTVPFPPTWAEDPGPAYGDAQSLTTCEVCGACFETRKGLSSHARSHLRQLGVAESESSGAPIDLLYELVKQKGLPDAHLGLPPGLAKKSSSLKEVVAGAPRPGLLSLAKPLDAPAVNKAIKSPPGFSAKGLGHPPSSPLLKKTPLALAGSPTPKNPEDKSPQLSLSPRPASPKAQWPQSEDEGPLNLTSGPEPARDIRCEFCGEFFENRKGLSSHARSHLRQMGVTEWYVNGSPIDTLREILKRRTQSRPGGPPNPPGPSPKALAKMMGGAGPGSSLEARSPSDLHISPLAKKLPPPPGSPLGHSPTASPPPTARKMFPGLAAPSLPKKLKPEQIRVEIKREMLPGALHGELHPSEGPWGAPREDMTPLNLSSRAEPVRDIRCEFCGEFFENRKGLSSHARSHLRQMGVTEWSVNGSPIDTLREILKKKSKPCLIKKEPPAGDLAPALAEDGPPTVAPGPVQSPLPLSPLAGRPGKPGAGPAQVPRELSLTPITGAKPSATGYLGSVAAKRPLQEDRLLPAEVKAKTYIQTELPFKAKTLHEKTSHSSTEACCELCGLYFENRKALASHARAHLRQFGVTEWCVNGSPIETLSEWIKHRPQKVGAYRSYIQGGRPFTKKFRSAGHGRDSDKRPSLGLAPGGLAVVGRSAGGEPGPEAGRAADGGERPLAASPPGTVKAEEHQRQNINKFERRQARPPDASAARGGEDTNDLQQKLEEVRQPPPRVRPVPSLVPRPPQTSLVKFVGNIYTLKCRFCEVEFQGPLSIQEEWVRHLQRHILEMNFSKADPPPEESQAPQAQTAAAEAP
Chain of WIZ (Widely interspaced zinc finger) (Q96SW2 whole entry, the tested form may be a part): as the sequence (Q96SW2 whole entry, the tested form may be a part) above
Chain of WIZ (Widely interspaced zinc finger) (Q16531 whole entry partner, the tested form may be a part): as the sequence (Q16531 whole entry partner, the tested form may be a part) above

O=C1CCC(N2C(=O)c3cccc(Nc4cc5cnn(C6CCOCC6)c5cc4C4CC4)c3C2=O)C(=O)N1 (stereo not drawn) [Compound 10, 4-((6-cyclopropyl-1-(tetrahydro-2H-pyran-4-yl)-1H-indazol-5-yl)amino)-2-(2,6-dioxopiperidin-3-yl)isoindoline-1,3-dione]
EC50 [1]: < 10 nM
EC50 [2]: > 100 nM
activation at 1 µM [3]: 66 to 100%

Cc1nccc(-c2cc3c(cnn3C)cc2Nc2cccc3c2C(=O)N(C2CCC(=O)NC2=O)C3=O)c1C (stereo not drawn) [Compound 29, 4-((6-(2,3-dimethylpyridin-4-yl)-1-methyl-1H-indazol-5-yl)amino)-2-(2,6-dioxopiperidin-3-yl)isoindoline-1,3-dione]
DC50 [1]: 10 to 100 nM
EC50 [2]: > 100 nM
activation at 1 µM [3]: < 33%

Cc1cc(-c2cc3c(cnn3C3CCOCC3)cc2Nc2cccc3c2C(=O)N(C2CCC(=O)NC2=O)C3=O)ccn1 (stereo not drawn) [Compound 4, 2-(2,6-dioxopiperidin-3-yl)-4-((6-(2-methylpyridin-4-yl)-1-(tetrahydro-2H-pyran-4-yl)-1H-indazol-5-yl)amino)isoindoline-1,3-dione]
DC50 [1]: 10 to 100 nM
DC50 [2]: 30 to 100 nM
activation at 1 µM [3]: 66 to 100%

O=C1CCC(N2C(=O)c3cccc(Nc4cc5cnn(C6CCOCC6)c5cc4Oc4cccc(F)c4)c3C2=O)C(=O)N1 (stereo not drawn) [Compound 16, 2-(2,6-dioxopiperidin-3-yl)-4-((6-(3-fluorophenoxy)-1-(tetrahydro-2H-pyran-4-yl)-1H-indazol-5-yl)amino)isoindoline-1,3-dione]
EC50 [1]: < 10 nM
EC50 [2]: > 100 nM
activation at 1 µM [3]: 66 to 100%

COc1ccc(-c2cc3ncn(C)c3cc2Nc2cccc3c2C(=O)N(C2CCC(=O)NC2=O)C3=O)cc1F (stereo not drawn) [Compound 5, 2-(2,6-dioxopiperidin-3-yl)-4-((5-(3-fluoro-4-methoxyphenyl)-1-methyl-1H-benzo[d]imidazol-6-yl)amino)isoindoline-1,3-dione]
DC50 [1]: 10 to 100 nM
DC50 [2]: 30 to 100 nM
activation at 1 µM [3]: 66 to 100%

Cc1nccc(-c2cc3c(cc2Nc2cccc4c2C(=O)N(C2CCC(=O)NC2=O)C4=O)N(C)C(=O)CC3)c1F (stereo not drawn) [Compound 45, 2-(2,6-dioxopiperidin-3-yl)-4-((6-(3-fluoro-2-methylpyridin-4-yl)-1-methyl-2-oxo-1,2,3,4-tetrahydroquinolin-7-yl)amino)isoindoline-1,3-dione]
EC50 [1]: < 10 nM
EC50 [2]: < 30 nM
activation at 1 µM [3]: 66 to 100%

CN(C)CCOc1cc(Oc2ccccc2)c(Nc2cccc3c2C(=O)N(C2CCC(=O)NC2=O)C3=O)cn1 (stereo not drawn) [Compound 9, 4-((6-(2-(dimethylamino)ethoxy)-4-phenoxypyridin-3-yl)amino)-2-(2,6-dioxopiperidin-3-yl)isoindoline-1,3-dione]
EC50 [1]: < 10 nM
DC50 [2]: 30 to 100 nM
activation at 1 µM [3]: 66 to 100%

Cc1cc(-c2cc3c(cc2Nc2cccc4c2C(=O)N([C@H]2CCC(=O)NC2=O)C4=O)N(C)C(=O)CC3)ccn1 [Compound 32, (S)-2-(2,6-dioxopiperidin-3-yl)-4-((1-methyl-6-(2-methylpyridin-4-yl)-2-oxo-1,2,3,4-tetrahydroquinolin-7-yl)amino)isoindoline-1,3-dione]
EC50 [1]: < 10 nM
DC50 [2]: 30 to 100 nM
activation at 1 µM [3]: 66 to 100%

Cn1ncc2cc(Nc3cccc4c3C(=O)N(C3CCC(=O)NC3=O)C4=O)c(C3CCOCC3)cc21 (stereo not drawn) [Compound 22, 2-(2,6-dioxopiperidin-3-yl)-4-((1-methyl-6-(tetrahydro-2H-pyran-4-yl)-1H-indazol-5-yl)amino)isoindoline-1,3-dione]
DC50 [1]: 10 to 100 nM
EC50 [2]: > 100 nM
activation at 1 µM [3]: 33 to 66%

COc1ccc(-c2cc3c(cnn3C)cc2Nc2cccc3c2C(=O)N(C2CCC(=O)NC2=O)C3=O)cc1F (stereo not drawn) [Compound 14, 2-(2,6-dioxopiperidin-3-yl)-4-((6-(3-fluoro-4-methoxyphenyl)-1-methyl-1H-indazol-5-yl)amino)isoindoline-1,3-dione]
DC50 [1]: > 100 nM
EC50 [2]: > 100 nM
activation at 1 µM [3]: 66 to 100%

CN(C)C1CCc2ccc(Nc3cccc4c3C(=O)N([C@@]3(C)CCC(=O)NC3=O)C4=O)cc21 (stereo partly drawn) [Compound 31, 4-((3-(dimethylamino)-2,3-dihydro-1H-inden-5-yl)amino)-2-((S)-3-methyl-2,6-dioxopiperidin-3-yl)isoindoline-1,3-dione]
DC50 [1]: 10 to 100 nM
EC50 [2]: > 100 nM
activation at 1 µM [3]: 33 to 66%
